# Results from US10759792B2, “CaMKII inhibitors and uses thereof” (The Johns Hopkins University, priority 2014, dated 2020).
# Target: CaMKIIδ (Homo sapiens (Human), UniProt Q13557)
# Assay: In vitro CaMKIIδ activity assay (coupled assay measuring ADP released, peptide substrate AC3)
# Format: biochemical
# Details: full length C-terminal His/Gln tagged CaMKIIδ construct, 16 nM enzyme, 25° C., duplicate
# Procedure: An exemplary procedure for the in vitro CaMKIIδ inhibition assay, which can be used to determine the inhibitory action of compounds of the invention toward CaMKII, follows. The procedure is taken from Chao L H, et al., (2010) Nat Struct Mol Biol. 17(3): 264-272, which is incorporated herein by reference in its entirety.
# The inhibition of CaMKII activity was evaluated using a coupled assay measuring ADP released following ATP hydrolysis and phosphor-transfer to the peptide substrate AC3 (KKALHRQETVDAL; SEQ ID NO: 1) (1). A full length, C-terminal His/Gln tagged CaMKIIδ construct was used (sequence in Table 3 below).
# Compounds were added in 5 uL volume to wells in UV transparent 96-well plates (½ area well size). The final compound concentrations tested ranged from 0.5 nM to 10 uM). Assays were performed in duplicate. CaMKIIδ is added to at a final concentration of 16 nM to a mixture containing 100 mM Tris (pH 7.5), 150 mM KCl, 0.27 mM EGTA, 1.3 mM PEP, 0.2 mg/ml AC3, 6.9% (v/v) PK/LDH mixture (Sigma P0294), 0.38 mM NADH and kept on ice. 72 uL of the enzyme mixture was added to the wells containing compounds and the plate was shaken briefly and kept on ice. The assay was initiated by adding 23 uL of a mixture containing 100 mM Tris (pH 7.5), 150 mM KCl, 1.7 mM CaCl2, 48 mM MgCl2, 0.35 mM ATP and 6.7 ug/mL calmodulin. The rate of ADP released was measured as the rate of absorbance decrease at […] at 25° C. and plotted against the log of the compound concentration (FIG. 1). IC50 data were fitted using GraphPad Prism software.
row,Structure (SMILES),IC50 [nM]
1,NCc1cccc(-c2ccnc3[nH]c4ccccc4c23)c1 [Compound I-3],≥ 1000
2,c1cc(-c2ccnc3[nH]c4ccccc4c23)nc(N2CCNCC2)c1 [Compound 9j],≤ 50
3,c1ccc2c(c1)[nH]c1nccc(-c3cc[nH]c3)c12 [Compound 8q],250 to 1000
4,"NCCOc1cccc(-c2ccnc3[nH]c4ccccc4c23)c1 [Compound I-9, 2-(3-(9H-pyrido[2,3-b]indol-4-yl)phenoxy)ethanamine]",≤ 50
5,C(=C\c1ccnc2[nH]c3ccccc3c12)/CN1CCNCC1 [Compound 9h],≥ 1000
6,"c1cc(-c2ccnc3[nH]c4ccccc4c23)cc(-n2ccnc2)c1 [Compound I-2, 4-(3-(1H-imidazol-1-yl)phenyl)-9H-pyrido[2,3-b]indole]",≥ 1000
7,c1ccc2c(c1)[nH]c1nccc(-n3cc(C4CCNCC4)nn3)c12 [Compound 9e],≥ 1000
8,C(=C/c1ccnc2[nH]c3ccccc3c12)/CN1CCNCC1 [Compound 9o],≥ 1000
9,Clc1cnccc1-c1ccnc2[nH]c3ccccc3c12 [Compound 8r],≥ 1000
10,C(#Cc1ccnc2[nH]c3ccccc3c12)CN1CCNCC1 [Compound 9n],250 to 1000
11,"Cc1ccc2[nH]c3nccc(-c4cccc(NCCN)c4)c3c2c1 [Compound I-13, N1-(3-(6-methyl-9H-pyrido[2,3-b]indol-4-yl)phenyl)ethane-1,2-diamine]",≤ 50
12,Cc1nn(C2CCNCC2)cc1-c1ccnc2[nH]c3ccccc3c12 [Compound 9l],≥ 1000
13,"NCCCOc1cccc(-c2ccnc3[nH]c4ccccc4c23)c1 [Compound I-10, 3-(3-(9H-pyrido[2,3-b]indol-4-yl)phenoxy)propan-1-amine]",≤ 50
14,c1ccc2c(c1)[nH]c1nccc(-c3cncc(N4CCNCC4)c3)c12 [Compound 9a],250 to 1000
15,"NCCNc1cccc(-c2ccnc3[nH]c4ccc(Cl)cc4c23)c1 [Compound I-14, N1-(3-(6-chloro-9H-pyrido[2,3-b]indol-4-yl)phenyl)ethane-1,2-diamine]",≤ 50
16,"NCCNc1cccc(-c2ccnc3[nH]c4ccccc4c23)c1 [Compound I-7, N1-(3-(9H-pyrido[2,3-b]indol-4-yl)phenyl)ethane-1,2-diamine]",≤ 50
17,Clc1ccncc1-c1ccnc2[nH]c3ccccc3c12 [Compound 8p],≥ 1000
18,"COc1ccc2c(c1)[nH]c1nccc(-c3cccc(NCCN)c3)c12 [Compound I-12, N1-(3-(7-methoxy-9H-pyrido[2,3-b]indol-4-yl)phenyl)ethane-1,2-diamine]",≤ 50
19,c1ccc2c(c1)[nH]c1nccc(-c3cnn(C4CCNCC4)c3)c12 [Compound 9m],≥ 1000
20,c1ccc2c(c1)[nH]c1nccc(-c3cnc(N4CCNCC4)s3)c12 [Compound 9k],≥ 1000
